Drawing on patent publication US8906952B2, “Indole derivative or pharmaceutically acceptable salt thereof, preparation method thereof, and pharmaceutical composition for preventing or treating metabolic diseases containing same as active ingredient” (Korea Research Institute of Bioscience and Biotechnology, priority 2011, dated 2014), this text covers IC50, inhibition and activity for 13 molecules.

One assay addresses T1, human DGAT1 (Homo sapiens, UniProt O75907).
T1 construct: made in house; host or cells: sf9 insect cells
T1 sequence (O75907 1-488): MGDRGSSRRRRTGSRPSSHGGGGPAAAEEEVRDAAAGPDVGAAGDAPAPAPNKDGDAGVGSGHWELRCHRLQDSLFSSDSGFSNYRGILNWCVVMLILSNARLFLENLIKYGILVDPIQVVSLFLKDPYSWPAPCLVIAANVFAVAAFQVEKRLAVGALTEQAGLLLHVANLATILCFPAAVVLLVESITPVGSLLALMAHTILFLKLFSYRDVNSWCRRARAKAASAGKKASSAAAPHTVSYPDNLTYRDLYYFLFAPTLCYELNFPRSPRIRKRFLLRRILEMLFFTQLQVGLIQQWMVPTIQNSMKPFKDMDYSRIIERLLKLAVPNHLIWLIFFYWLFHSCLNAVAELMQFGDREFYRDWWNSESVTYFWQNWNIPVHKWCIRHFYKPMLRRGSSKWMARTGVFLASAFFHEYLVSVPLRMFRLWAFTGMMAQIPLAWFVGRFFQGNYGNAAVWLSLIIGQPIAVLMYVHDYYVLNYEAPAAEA
Briefly: DGAT enzyme inhibition test, hDGAT1 enzyme from sf9 insect cells. Format: biochemical. To be noted: enzyme from sf9 cells overexpressing hDGAT1; read-out: hDGAT-1 (sf9) IC50. The text has this:
(§1) To investigate inhibitory effect of the compounds of Examples 1-33 against DGAT enzyme activity, DGAT enzyme inhibition and DGAT2 selectivity were investigated using zymogen including:
(§2) 1) hDGAT1 and hDGAT2 enzymes, derived from insect cell overexpressing human DGAT1 and DGAT2 (‘sf9’), respectively,
(§3) To be specific, for the purpose of measuring human-derived DGAT enzyme inhibitory activity, using the zymogen, including enzymes derived from insect cell overexpressing human DGAT1 and DGAT2 (‘sf9’), microsomal protein isolated from human duodenal adenocarcinoma (‘Hutu 80’), and microsomal protein isolated from rat, and according to Coleman et al., (Methods Enzymol., 98-103, 1992), and substrate including 1,2-diacylglycerol(Sigma, D0138) and [^14C]palmitoyl-CoA (Amersham, CFA583), the amount of radiation of [^14C]triacylglycerol produced after enzymatic reaction was measured.
(§4) To be more specific, to the reaction solution containing 175 mM Tris-HCl (pH 8.0), 20 μl bovine serum albumin (10 mg/ml), 100 mM magnesium chloride, 30 μM [^14C]palmitoyl CoA (0.02 μCi, Amersham) and 200 μM 1,2-dioleoylglycerol, reagent dissolved in dimethylsulfoxide (10.0 μl) was added. After introducing 100 to 200 μg isolated microsomal protein and allowing the same to react at 25° C. for 10 min, the reaction was stopped by adding 1.5 ml stop solution (2-propanol:heptane:water=80:20:2, v:v:v). To isolate the product of the reaction (i.e., [^14C]triacylglycerol), 1 ml heptane and 0.5 ml distilled water were added and then decocted. After taking 1 ml supernatant, 2 ml alkaline ethanol solution (ethanol:0.5 N sodium hydroxide:water=50:10:40, v:v:v) were added and then decocted. After taking 0.65 ml supernatant from the decoction, the amount of radiation was measured with liquid scintillation counter (LSC). The DGAT inhibitory activity was calculated with Mathematical Expression 1 below:
(§5) T denotes cpm of experimental group in which the enzymatic reaction solution was treated with the sample,
(§6) C denotes cpm of control group in which the enzymatic reaction solution was not treated with the sample, and
(§7) B denotes cpm of control group treated with the sample without zymogen.

The target of a further assay is T2, human DGAT2 (Homo sapiens, UniProt Q96PD7).
T2 construct: made in house; host or cells: sf9 insect cells
T2 sequence (Q96PD7 1-388): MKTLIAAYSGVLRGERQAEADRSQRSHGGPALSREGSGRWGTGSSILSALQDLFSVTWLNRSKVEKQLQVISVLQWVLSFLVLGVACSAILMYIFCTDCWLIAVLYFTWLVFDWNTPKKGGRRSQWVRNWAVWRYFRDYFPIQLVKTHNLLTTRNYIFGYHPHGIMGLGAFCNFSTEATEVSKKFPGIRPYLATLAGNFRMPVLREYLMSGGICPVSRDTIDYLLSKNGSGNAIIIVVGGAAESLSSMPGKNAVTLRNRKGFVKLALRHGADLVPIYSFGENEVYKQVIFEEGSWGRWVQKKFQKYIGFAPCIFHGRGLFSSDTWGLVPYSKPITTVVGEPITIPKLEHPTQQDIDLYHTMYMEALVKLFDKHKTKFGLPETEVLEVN
Briefly: DGAT enzyme inhibition test, hDGAT2 enzyme from sf9 insect cells (DGAT2 selectivity). Format: biochemical.
Excerpt: as §1, §2, §3, §4, §5, §6, §7

The subject of a further assay is HepG2 cells. Briefly: DGAT inhibitory effect in HepG2 cells (triglyceride production from [14C]glycerol). Format: cell-based. As to conditions: Homo sapiens; for activity at 10 µM: HepG2, 6 h, DMSO control = 100, read-out: Triglyceride production rate (%)/HepG2 cells at 10 μM; for inhibition at 10 µM: HepG2, 10 μM, read-out: biosynthesis inhibition rate of triglyceride. The protocol:
To investigate inhibition effect on intracellular DGAT enzyme activity of the compounds obtained in Examples 1-51, intracellular DGAT enzyme activity was measured using human-derived liver HepG2 cells.
HepG2 cells were purchased from ATCC, and cultured in 37° C., 5% CO2 incubator including minimum essential medium (2 mM L-glutamine, earle's BSS adjusted to contain 1.5 g/L sodium bicarbonate, 0.1 mM nonessential amino acids, and 1 mM sodium pyruvate) added with 10% fetal bovine serum (FBS) and 1% antibiotic (100 U/ml penicillin and 100 µg/ml streptomycin).
The intracellular DGAT enzyme activity was measured based on an amount of triglycerides produced in the cultured HepG2 cells, by adding 10 μM enzyme inhibitor compounds obtained in Examples 1-51, respectively, and then determining the effect of the enzyme inhibitors according to reduction rate of the triglyceride production.
Specifically, cells were seeded 1×10^6 cell/ml per well of the 24 well culture plate, and 24 hours after incubation, medium was exchanged with FBS-free DMEM medium, and sample of 0.2 mCi [^14C]glycerol (Amersham) was added as substrate, and the reaction was allowed to occur for 6 hr. The induced production of triglyceride was catalyzed by the DGAT enzyme, and DGAT enzyme activity was determined based on the amount of production of triglyceride which was measured based on the amount of radiation. The sample was dissolved in dimethylsulfoxide (DMSO) to be used, and the control group in the triglyceride production reaction was reacted with dimethylsulfoxide only (i.e., without sample), and the amount of the triglyceride production rate was set to 100.
After the reaction completed, the substrate [^14C]glycerol which was either not absorbed into cells or not used for the reaction, were removed with phosphate-buffer-saline (PBS), and 0.5 ml extraction solvent (hexane:isopropanol=3:2, v:v) was added to extract full fat containing triglycerides. With 0.5 ml extraction solvent, extract was obtained two times for 30 min each, and 1 ml of the extract was concentrated with nitrogen gas. After removing the extraction solvent, the total fat was dissolved in organic solvent (chloroform:methanol=2:1) and spotted with thin-layer chromatography (TLC:silica gel 60F254, thickness: 0.5 mm, Merck) on the developing solvent (hexane:diethyl ether:acetic acid=80:20:1, v: v: v). Triglycerides (Rf value: 0.4) were isolated on TLC, and after exposing the TLC plate to the film with photosensitivity to radiation energy (imaging plate' Fujifilm, BMS-MS 2040) for 3 hr, the amount of [^14C] radiation of triglyceride was measured by imaging analysis (FLA 7000). The remaining cells after the extraction were dissolved in 0.3 ml 0.1 N sodium hydroxide for use in the measurement of protein concentration of the cells used for the reaction.
The experimental errors among the respective experimental groups were compensated with the experimental value which was obtained by dividing the measured radiation of triglyceride by protein concentration, and the production rate of triglyceride according to the respective compounds of Examples 1-51 are tabulated below.

Where [1] appears, read: 10 μM, enzyme from sf9 cells overexpressing hDGAT2, read-out: hDGAT-2 (sf9) inhibition rate(%)at 10 μM.
Where [2] appears, read: concentration of 10 μM, read-out: hDGAT2 inhibition.

Where two headings read alike, the source gives them in different places.

On to `Cc1ccc2c(/C=C/C(=O)N(NC(=O)c3cccc(F)c3)C(C)C)cn(C(=O)OC(C)(C)C)c2c1` [Example 37, (E)-tert-butyl 3-(3-(2-(3-fluorobenzoyl)-1-isopropylhydrazinyl)-3-oxoprop-1-enyl)-6-methyl-1H-indole-1-carboxylate], for which the IC50 at human DGAT1 is greater than 100 µM. The inhibition at 10 µM at human DGAT2 (setting [1]) was 2.9%. For the same molecule, in the assay with HepG2 cells, the activity at 10 µM was determined as 79.2% and the inhibition at 10 µM lay in the range of 20 to 30%.
Regarding `CC(C)CCn1cc(/C=C/C(=O)N(NC(=O)c2cccc(F)c2)C(C)C)c2ccccc21` [Example 39, (E)-3-fluoro-N′-(3-(1-isopentyl-1H-indol-3-yl)acryloyl)-N′-isopropylbenzohydrazide], the IC50 at human DGAT1 came out at 1.8 µM. The inhibition at 10 µM on human DGAT2 (setting [1]) was 42.3%. Further, in the assay on HepG2 cells, the activity at 10 µM came out at 50.8%.
For the molecule `CC(C)c1ccc2c(/C=C/C(=O)N(NC(=O)c3cccc(F)c3)C(C)C)cn(C(=O)OC(C)(C)C)c2c1` [Example 36, (E)-tert-butyl 3-(3-(2-(3-fluorobenzoyl)-1-isopropylhydrazinyl)-3-oxoprop-1-enyl)-6-isopropyl-1H-indole-1-carboxylate], on human DGAT1, the concentration for half-maximal inhibition (IC50) is greater than 100 µM. Besides, the inhibition at 10 µM at human DGAT2 (setting [1]) was 3.6%. In addition, in the assay with HepG2 cells, the activity at 10 µM was 75% and the inhibition at 10 µM lay in the range of 20 to 30%.
As to `CC(C)N(NC(=O)c1cccc(Cl)c1)C(=O)/C=C/c1cn(C(=O)OC(C)(C)C)c2ccccc12` [Example 45, (E)-tert-butyl 3-(3-(2-(3-chlorobenzoyl)-1-isopropylhydrazinyl)-3-oxoprop-1-enyl)-1H-indole-1-carboxylate], the IC50 at human DGAT1 amounted to 2.2 µM. Besides, the inhibition at 10 µM on human DGAT2 (setting [1]) was 28.7%. For the same molecule, in the assay on HepG2 cells, the activity at 10 µM was determined as 97.9%.
For the molecule `CCn1cc(/C=C/C(=O)N(NC(=O)c2cccc(F)c2)C(C)C)c2ccccc21` [Example 41, (E)-N′-(3-(1-ethyl-1H-indol-3-yl)acryloyl)-3-fluoro-N′-isopropylbenzohydrazide], the 50% inhibitory concentration (IC50) on human DGAT1 worked out at 8.1 µM. Also, the inhibition at 10 µM at human DGAT2 (setting [1]) came out at 20.3%. Besides, in the assay with HepG2 cells, the activity at 10 µM amounted to 79.4% and the inhibition at 10 µM was in the range of 20 to 30%.
Take `CC(C)N(NC(=O)c1cccc(F)c1)C(=O)/C=C/c1cn(C)c2ccccc12` [Example 40, (E)-3-fluoro-N′-isopropyl-N′-(3-(1-methyl-1H-indol-3-yl)acryloyl)benzohydrazide]: the IC50 at human DGAT1 was greater than 100 µM. Besides, the inhibition at 10 µM on human DGAT2 (setting [1]) stood at 2.2%. Besides, in the assay on HepG2 cells, the activity at 10 µM is 90%.
In the case of `CC(C)N(NC(=O)c1ccncc1)C(=O)/C=C/c1cn(C(=O)OC(C)(C)C)c2ccccc12` [Example 43, (E)-tert-butyl 3-(3-(2-isonicotinoyl-1-isopropylhydrazinyl)-3-oxoprop-1-enyl)-1H-indole-1-carboxylate], the 50% inhibitory concentration (IC50) on human DGAT1 is 4 µM. Besides, the inhibition at 10 µM at human DGAT2 (setting [1]) was 0.6%; at human DGAT2 (setting [2]), less than 11%. In addition, the activity at 10 µM in the assay with HepG2 cells is 81.3%.
As to `Cc1ccc2c(c1)c(/C=C/C(=O)N(NC(=O)c1cccc(F)c1)C(C)C)cn2C(=O)OC(C)(C)C` [Example 35, (E)-tert-butyl 3-(3-(2-(3-fluorobenzoyl)-1-isopropylhydrazinyl)-3-oxoprop-1-enyl)-5-methyl-1H-indole-1-carboxylate], at human DGAT1, the concentration for half-maximal inhibition (IC50) amounted to 3.2 µM. For the same molecule, the inhibition at 10 µM was 2% on human DGAT2 (setting [1]) and less than 11% at human DGAT2 (setting [2]). Further, in the assay on HepG2 cells, the activity at 10 µM is 57.6%.
As to `CC(C)=CCn1cc(/C=C/C(=O)N(NC(=O)c2ccc(C)cc2)C(C)C)c2ccccc21` [Example 51, (E)-N′-isopropyl-4-methyl-N′-(3-(1-(3-methylbut-2-enyl)-1H-indol-3-yl)acryloyl)benzohydrazide], at human DGAT1, the 50% inhibitory concentration (IC50) stood at 9.9 µM. In addition, the inhibition at 10 µM on human DGAT2 (setting [1]) stood at 37.1%.
The like results for `CC(C)=CCn1cc(/C=C/C(=O)N(NC(=O)c2cccc(C)c2)C(C)C)c2ccccc21` [Example 50, (E)-N′-isopropyl-3-methyl-N′-(3-(1-(3-methylbut-2-enyl)-1H-indol-3-yl)acryloyl)benzohydrazide] were, in that order, 4.6 µM and 39%.
Take `CC(C)=CCn1cc(/C=C/C(=O)N(NC(=O)c2cccc(F)c2)C(C)C)c2ccccc21` [Example 34]: the IC50 at human DGAT1 came out at 7.2 µM. Further, at human DGAT2 (setting [1]), the inhibition at 10 µM amounted to 18.5%. Besides, in the assay on HepG2 cells, the activity at 10 µM worked out at 58%.
The like results for `CC(C)N(NC(=O)c1cccc(F)c1)C(=O)/C=C/c1cn(C(=O)OC(C)(C)C)c2cc(F)ccc12` [Example 38, (E)-tert-butyl 6-fluoro-3-(3-(2-(3-fluorobenzoyl)-1-isopropylhydrazinyl)-3-oxoprop-1-enyl)-1H-indole-1-carboxylate] were, in that order, greater than 100 µM, less than 0% and 85.7%.
In the case of `CCCn1cc(/C=C/C(=O)N(NC(=O)c2cccc(F)c2)C(C)C)c2ccccc21` [Example 42, (E)-3-fluoro-N′-isopropyl-N′-(3-(1-propyl-1H-indol-3-yl)acryloyl)benzohydrazide], the concentration for half-maximal inhibition (IC50) at human DGAT1 amounted to 3.6 µM. In addition, the inhibition at 10 µM at human DGAT2 (setting [1]) worked out at 32.4%. In the assay with HepG2 cells, the activity at 10 µM was determined as 79.9% and the inhibition at 10 µM lay within 20 to 30%.
